In PMC6941952, “A homogeneous bioluminescent immunoassay to probe cellular signaling pathway regulation” (Communications Biology, 2020):

Tested on: phospho-IκBα (Ser32)
Experiment: NanoBiT cell-based immunoassay, phosphorylated IκBα in MCF-7 cells
Parameters: species or system human
Conditions: for Raw data / Subtract reagent background: TNF
Description: Prior to NanoBiT Cell-Based Immunoassay, 50,000 cells were seeded in 160 µl of complete growth media per well of a 96-well plate and incubated overnight. The cells were checked under microscope and it was determined that 50,000 cells per well in 96-well plate is under 90% confluency for all cells tested. If necessary, the cell culture media were replaced with serum-free media after the cells were stably adherent on the plate and incubated overnight. To treat cells with activators or inhibitors, medium was changed to 30 µl of medium containing inhibitors. If activation of a specific pathway is needed, the cells were stimulated with 10 µl of medium containing activators. To lyse the cells, 10 µl of lysis buffer containing 0.1% digitonin diluted in 1X immunoassay buffer with protease and phosphatase inhibitors was added and the plates were mixed vigorously for 20 min. Then, 50 µl of an antibody mix containing two primary antibodies against the target protein and NanoBiT detecting antibodies (0.3 µl each per well), diluted in 1X immunoassay buffer was added to the lysates. The plates were incubated at 23 °C for 90 min, followed by the addition of 25 µl of Nano-Glo® reagent consisting of Nano-Glo® Luciferase Assay Substrate mixed with 1X immunoassay buffer. Luminescence was measured using a plate-reading luminometer.
In all, 50,000 MCF-7 cells were seeded in 160 µl complete growth medium per well of a 96-well plate and incubated overnight. Half of the cells were treated with 50 ng per ml TNFα and half with vehicle. Cells were lysed as described above and a mixture of NanoBiT secondary antibodies with primary antibodies at the matrix concentrations described in Fig. 2a were added. After 90 min incubation, the Nano-Glo® reagent was added to the reactions as described above and luminescence was measured using a plate-reading luminometer.
Single dose or dose response inhibitor treatments were performed prior to activation of the pathways as follows. For IκBα, the cells were treated in 30 µl medium with IKK16 or MG132 for 60 min before the addition of 10 µl of DMEM containing appropriate concentration of TNFα. To measure phosphorylation of AKT or STAT3, the corresponding NanoBiT immunoassays were developed with MCF-7 or A431 cells, respectively, according the same scheme used to develop the IκBα assay using the primary antibodies for AKT and STAT3 described in the reagents section. For the AKT assay, MCF-7 cells were incubated overnight in phenol-red free DMEM medium (Gibco #21063-029) without serum. Treatment with LY294002 was performed in 30 µl medium and cells were incubated for 60 min before the addition of 1 µM Insulin. To measure STAT3 phosphorylation, A431 cells were incubated overnight in DMEM medium without serum. […] After addition of the stimulators, the cells were incubated for additional times as follows. IκBα phosphorylation and degradation analyses required both time courses and single time points as described in figures. […] The NanoBiT immunoassay protocol was followed as described above.
All 96-well assay plates were read using a GloMax® 96 Microplate Luminometer from Promega. The instrument was set to 0.5 s integration time. In order to obtain net change of signal, the reagent background values (signal from the well containing all reagent except primary antibodies) were subtracted from the sample values. To plot and analyze the data, Microsoft Excel and GraphPad Prism® Software were used. IC50 values were determined by using a nonlinear regression fit to a sigmoidal dose response (variable slope).

[1] = plate #3, IkB Ab #3 75 ng/ml, P-IkB Ab #2 75 ng/ml
[2] = plate #3, IkB Ab #3 75 ng/ml, P-IkB Ab #2 150 ng/ml
[3] = plate #3, IkB Ab #3 75 ng/ml, P-IkB Ab #2 300 ng/ml
[4] = plate #3, IkB Ab #3 75 ng/ml, P-IkB Ab #2 600 ng/ml
[5] = plate #3, IkB Ab #3 75 ng/ml, P-IkB Ab #2 1200 ng/ml
[6] = plate #3, IkB Ab #3 150 ng/ml, P-IkB Ab #2 75 ng/ml
[7] = plate #3, IkB Ab #3 150 ng/ml, P-IkB Ab #2 150 ng/ml
[8] = plate #3, IkB Ab #3 150 ng/ml, P-IkB Ab #2 300 ng/ml
[9] = plate #3, IkB Ab #3 150 ng/ml, P-IkB Ab #2 600 ng/ml
[10] = plate #3, IkB Ab #3 150 ng/ml, P-IkB Ab #2 1200 ng/ml
[11] = plate #3, IkB Ab #3 300 ng/ml, P-IkB Ab #2 75 ng/ml
[12] = plate #3, IkB Ab #3 300 ng/ml, P-IkB Ab #2 150 ng/ml
[13] = plate #3, IkB Ab #3 300 ng/ml, P-IkB Ab #2 300 ng/ml
[14] = plate #3, IkB Ab #3 300 ng/ml, P-IkB Ab #2 600 ng/ml
[15] = plate #3, IkB Ab #3 300 ng/ml, P-IkB Ab #2 1200 ng/ml
[16] = plate #3, IkB Ab #3 600 ng/ml, P-IkB Ab #2 75 ng/ml
[17] = plate #3, IkB Ab #3 600 ng/ml, P-IkB Ab #2 150 ng/ml
[18] = plate #3, IkB Ab #3 600 ng/ml, P-IkB Ab #2 300 ng/ml
[19] = plate #3, IkB Ab #3 600 ng/ml, P-IkB Ab #2 600 ng/ml
[20] = plate #3, IkB Ab #3 600 ng/ml, P-IkB Ab #2 1200 ng/ml
[21] = plate #3, IkB Ab #3 1200 ng/ml, P-IkB Ab #2 75 ng/ml
[22] = plate #3, IkB Ab #3 1200 ng/ml, P-IkB Ab #2 150 ng/ml
[23] = plate #3, IkB Ab #3 1200 ng/ml, P-IkB Ab #2 300 ng/ml
[24] = plate #3, IkB Ab #3 1200 ng/ml, P-IkB Ab #2 600 ng/ml
[25] = plate #3, IkB Ab #3 1200 ng/ml, P-IkB Ab #2 1200 ng/ml

Substance: TNFα
- Fold change (TNF-treated /Non-treated) (plate #2, IkB Ab #2 (Mouse) 600 ng/ml, P-IkB Ab #1 (Rabbit) 1200 ng/ml, listed as TNF): 0.8
- Fold change (TNF-treated /Non-treated) (plate #2, IkB Ab #2 (Mouse) 1200 ng/ml, P-IkB Ab #1 (Rabbit) 75 ng/ml): 1.511
- Fold change (TNF-treated /Non-treated) (plate #2, IkB Ab #2 (Mouse) 1200 ng/ml, P-IkB Ab #1 (Rabbit) 75 ng/ml, listed as TNF): 1.5
- Fold change (TNF-treated /Non-treated) (plate #2, IkB Ab #2 (Mouse) 1200 ng/ml, P-IkB Ab #1 (Rabbit) 150 ng/ml): 2.468
- Fold change (TNF-treated /Non-treated) (plate #2, IkB Ab #2 (Mouse) 1200 ng/ml, P-IkB Ab #1 (Rabbit) 150 ng/ml, listed as TNF): 2.5
- Fold change (TNF-treated /Non-treated) (plate #2, IkB Ab #2 (Mouse) 1200 ng/ml, P-IkB Ab #1 (Rabbit) 300 ng/ml): 2.168
- Fold change (TNF-treated /Non-treated) (plate #2, IkB Ab #2 (Mouse) 1200 ng/ml, P-IkB Ab #1 (Rabbit) 300 ng/ml, listed as TNF): 2.2
- Fold change (TNF-treated /Non-treated) (plate #2, IkB Ab #2 (Mouse) 1200 ng/ml, P-IkB Ab #1 (Rabbit) 600 ng/ml): 2.1086
- Fold change (TNF-treated /Non-treated) (plate #2, IkB Ab #2 (Mouse) 1200 ng/ml, P-IkB Ab #1 (Rabbit) 600 ng/ml, listed as TNF): 2.1
- Fold change (TNF-treated /Non-treated) (plate #2, IkB Ab #2 (Mouse) 1200 ng/ml, P-IkB Ab #1 (Rabbit) 1200 ng/ml): 1.784
- Fold change (TNF-treated /Non-treated) (plate #2, IkB Ab #2 (Mouse) 1200 ng/ml, P-IkB Ab #1 (Rabbit) 1200 ng/ml, listed as TNF): 1.8
- Raw data [1]: 20510
- Subtract reagent background [1]: 5320
- Raw data [2]: 20430
- Subtract reagent background [2]: 5240
- Raw data [3]: 19120
- Subtract reagent background [3]: 3930
- Raw data [4]: 17590
- Subtract reagent background [4]: 2400
- Raw data [5]: 16090
- Subtract reagent background [5]: 900
- Raw data [6]: 27550
- Subtract reagent background [6]: 12360
- Raw data [7]: 26450
- Subtract reagent background [7]: 11260
- Raw data [8]: 24490
- Subtract reagent background [8]: 9300
- Raw data [9]: 21590
- Subtract reagent background [9]: 6400
- Raw data [10]: 19970
- Subtract reagent background [10]: 4780
- Raw data [11]: 26220
- Subtract reagent background [11]: 11030
- Raw data [12]: 24040
- Subtract reagent background [12]: 8850
- Raw data [13]: 23970
- Subtract reagent background [13]: 8780
- Raw data [14]: 20830
- Subtract reagent background [14]: 5640
- Raw data [15]: 19500
- Subtract reagent background [15]: 4310
- Raw data [16]: 24590
- Subtract reagent background [16]: 9400
- Raw data [17]: 22810
- Subtract reagent background [17]: 7620
- Raw data [18]: 23190
- Subtract reagent background [18]: 8000
- Raw data [19]: 21540
- Subtract reagent background [19]: 6350
- Raw data [20]: 20460
- Subtract reagent background [20]: 5270
- Raw data [21]: 23630
- Subtract reagent background [21]: 8440
- Raw data [22]: 23620
- Subtract reagent background [22]: 8430
- Raw data [23]: 22930
- Subtract reagent background [23]: 7740
- Raw data [24]: 22240
- Subtract reagent background [24]: 7050
- Raw data [25]: 21740
- Subtract reagent background [25]: 6550
- Fold change (TNF-treated /Non-treated) (plate #3, IkB Ab #3 (Rabbit) 150 ng/ml, P-IkB Ab #2 (Mouse) 75 ng/ml): 3.572
- Fold change (TNF-treated /Non-treated) (plate #3, IkB Ab #3 (Rabbit) 150 ng/ml, P-IkB Ab #2 (Mouse) 150 ng/ml): 2.066
- Fold change (TNF-treated /Non-treated) (plate #3, IkB Ab #3 (Rabbit) 150 ng/ml, P-IkB Ab #2 (Mouse) 300 ng/ml): 1.553
- Fold change (TNF-treated /Non-treated) (plate #3, IkB Ab #3 (Rabbit) 150 ng/ml, P-IkB Ab #2 (Mouse) 600 ng/ml): 1.339
- Fold change (TNF-treated /Non-treated) (plate #3, IkB Ab #3 (Rabbit) 150 ng/ml, P-IkB Ab #2 (Mouse) 1200 ng/ml): 0.8968
- Fold change (TNF-treated /Non-treated) (plate #3, IkB Ab #3 (Rabbit) 300 ng/ml, P-IkB Ab #2 (Mouse) 75 ng/ml): 2.895
- Fold change (TNF-treated /Non-treated) (plate #3, IkB Ab #3 (Rabbit) 300 ng/ml, P-IkB Ab #2 (Mouse) 150 ng/ml): 1.664
- Fold change (TNF-treated /Non-treated) (plate #3, IkB Ab #3 (Rabbit) 300 ng/ml, P-IkB Ab #2 (Mouse) 300 ng/ml): 1.602
- Fold change (TNF-treated /Non-treated) (plate #3, IkB Ab #3 (Rabbit) 300 ng/ml, P-IkB Ab #2 (Mouse) 600 ng/ml): 1.153
- Fold change (TNF-treated /Non-treated) (plate #3, IkB Ab #3 (Rabbit) 300 ng/ml, P-IkB Ab #2 (Mouse) 1200 ng/ml): 0.9289
- Fold change (TNF-treated /Non-treated) (plate #3, IkB Ab #3 (Rabbit) 600 ng/ml, P-IkB Ab #2 (Mouse) 75 ng/ml): 2.035
- Fold change (TNF-treated /Non-treated) (plate #3, IkB Ab #3 (Rabbit) 600 ng/ml, P-IkB Ab #2 (Mouse) 150 ng/ml): 1.414
- Fold change (TNF-treated /Non-treated) (plate #3, IkB Ab #3 (Rabbit) 600 ng/ml, P-IkB Ab #2 (Mouse) 300 ng/ml): 1.541
- Fold change (TNF-treated /Non-treated) (plate #3, IkB Ab #3 (Rabbit) 600 ng/ml, P-IkB Ab #2 (Mouse) 600 ng/ml): 1.301
- Fold change (TNF-treated /Non-treated) (plate #3, IkB Ab #3 (Rabbit) 600 ng/ml, P-IkB Ab #2 (Mouse) 1200 ng/ml): 1.1557
- Fold change (TNF-treated /Non-treated) (plate #3, IkB Ab #3 (Rabbit) 1200 ng/ml, P-IkB Ab #2 (Mouse) 75 ng/ml): 1.581
- Fold change (TNF-treated /Non-treated) (plate #3, IkB Ab #3 (Rabbit) 1200 ng/ml, P-IkB Ab #2 (Mouse) 150 ng/ml): 1.544
- Fold change (TNF-treated /Non-treated) (plate #3, IkB Ab #3 (Rabbit) 1200 ng/ml, P-IkB Ab #2 (Mouse) 300 ng/ml): 1.173
- Fold change (TNF-treated /Non-treated) (plate #3, IkB Ab #3 (Rabbit) 1200 ng/ml, P-IkB Ab #2 (Mouse) 600 ng/ml): 1.469
- Fold change (TNF-treated /Non-treated) (plate #3, IkB Ab #3 (Rabbit) 1200 ng/ml, P-IkB Ab #2 (Mouse) 1200 ng/ml): 1.2818
